Where “and” joins values, the source holds several entries; their conditions need not be identical. Identical values can stand only once.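 Interpolation was linear, between the two tested concentrations surrounding the appropriate level; five concentrations were tested over 48 hours in 96-well plates. TGI is the concentration that stops growth completely.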
Key:
Experiment in all cases: NCI-60 cell line screen, 48 h
NCI/ADR-RES ovarian = system: NCI/ADR-RES ovarian
NCI-H522 lung = system: NCI-H522 lung
SN12C renal = system: SN12C renal
MCF7 breast = system: MCF7 breast
HL-60(TB) leukemia = system: HL-60(TB) leukemia
OVCAR-4 ovarian = system: OVCAR-4 ovarian
HOP-92 NSCLC = system: HOP-92 NSCLC
OVCAR-8 ovarian = system: OVCAR-8 ovarian
MDA-MB-231 breast = system: MDA-MB-231 breast
HCT-15 colon = system: HCT-15 colon
SK-OV-3 ovarian = system: SK-OV-3 ovarian
UACC-62 melanoma = system: UACC-62 melanoma

SMILES | TGI (NCI/ADR-RES ovarian) [µM] | TGI (NCI-H522 lung) [µM] | TGI (SN12C renal) [µM] | TGI (MCF7 breast) [µM] | TGI (HL-60(TB) leukemia) | TGI (OVCAR-4 ovarian) [µM] | TGI (HOP-92 NSCLC) | TGI (OVCAR-8 ovarian) [µM] | TGI (MDA-MB-231 breast) [µM] | TGI (HCT-15 colon) [µM] | TGI (SK-OV-3 ovarian) | TGI (UACC-62 melanoma) [µM]
C=CCOc1cccc(C2(O)c3ccccc3C3=NCCCN32)c1 (stereo not given) | > 75.6 | 41.4 | > 68.8 | 32 | > 35.6 µM | > 80.1 | > 82.6 µM | > 43.2 | > 100 | > 50 | > 100 µM | 31.6
COc1ccc(-c2c(C#N)c(N)n(C3OCC(OC(C)=O)C(OC(C)=O)C3OC(C)=O)c(=S)c2C#N)cc1 (stereo not given) | > 100 | > 100 | > 100 | > 100 | 36.5 µM and 35.9 µM | > 100 | 88.8 µM and 98.5 µM | > 100 | > 100 | > 100 | 85.2 µM and > 100 µM | > 100
O=C1/C(=C/c2cccc(F)c2)CCCc2ccccc21 | 33.1 | 25.5 | 31.8 | 30.5 | 62.9 µM | 31.8 | 29.2 µM | 29.3 | 32.5 | 29.3 | 68.2 µM | 28.6
O=C1/C(=C/c2cccc(Br)c2)CCc2ccccc21 | 33.2 | 24.3 | 29.2 | 14.9 | 28.3 µM | 26.7 | 28.2 µM | 36.1 | 35.9 | 24.1 | 47.2 µM | 22.4
CC[C@]1(Cc2ccc(OC)c(OC)c2)C=[N+]([O-])O[C@H](OC2CCCC2(c2ccccc2)c2ccccc2)[C@@H]1OC(=O)c1ccccc1 (stereo not given in full) | > 62.7 | > 100 | > 88.2 | > 24.9 | > 100 µM | > 100 | > 100 µM | > 100 | > 100 | > 100 | > 100 µM | > 38.6
C(=C\c1cccs1)/c1cccc(/C=C/c2cccs2)n1 | > 100 | – | > 100 | > 100 | > 100 µM | 66.6 | > 100 µM | > 100 | > 100 | > 100 | > 100 µM | > 100
CCCCCCCCCCCCCCCCCCNC(=O)C(N)Cc1ccc(OCc2ccccc2)cn1 (stereo not given) | 38.4 | 38.5 | 49.3 | 35.8 | 37.1 µM | 34 | 41.3 µM | 37.3 | 38.3 | 37.3 | 40.2 µM | 32.2
O=C1/C(=C/c2ccccc2O)N=C(c2ccccc2)N1C1Nc2cc3c(cc2S1)NC(N1C(=O)/C(=C/c2ccccc2O)N=C1c1ccccc1)S3 (stereo not given) | > 100 | > 100 | – | > 100 | > 100 µM | > 100 | 15 µM | > 100 | > 100 | > 100 | > 100 µM | –
C=CCN1C(=O)C=C(c2ccccc2)n2ncc3cccc1c32 | > 100 | > 100 | > 100 | > 100 | > 100 µM | – | > 100 µM | > 100 | > 100 | > 100 | > 100 µM | > 100
Cc1csc2c(=O)n(C3OC(CO)C(O)C3O)c(=O)[nH]c12 (stereo not given) | > 100 | > 100 | > 100 | > 100 | > 100 µM | > 100 | > 100 µM | > 100 | > 100 | – | – | –
COc1ccc(Nc2nnc(-c3nsc4ccccc34)s2)cc1 | > 100 | – | > 100 | > 100 | > 100 µM | 6.73 | 41.8 µM | > 100 | > 100 | > 100 | 19 µM | > 100
Cc1nc2ccccc2n1COC(Cn1ccnc1)c1ccc(Cl)cc1Cl (stereo not given) | > 100 | > 100 | > 100 | > 100 | 85.4 µM | > 100 | 77.6 µM | > 100 | > 100 | > 100 | – | > 100
CCOP(=O)(OCC)/C(C#N)=C/c1ncc[nH]1 | > 100 | > 100 | > 100 | > 100 | > 100 µM | > 100 | > 100 µM | > 100 | > 100 | – | > 100 µM | > 100
C=CCNC(=O)NC(=O)CSC1=NNC2(C(=O)N1)c1ccccc1-c1ccccc12 | > 10 | > 10 | > 10 | > 10 | > 10 µM | > 10 | > 10 µM | > 10 | > 10 | > 10 | > 10 µM | > 10
Cn1c2ccccc2c2c(-c3ccccc3)cc3c(c21)C(=O)C=CC3=O | > 9.15 | 2.74 | 5.76 | 4.35 | 1.1 µM | 5.75 | 3.78 µM | 5.12 | 5.72 | 5.41 | > 10 µM | 2.64
O=C(CN1CCCCC1)Nc1ccc2sc3ccccc3c(=O)c2n1 | 36.1 | 23.1 | 68.3 | 77.9 | 68.9 µM | > 100 | 30 µM | 47.4 | 59.9 | 40.2 | 48.9 µM | 30.1
C=C(C)C1=CCC[C@]2(C1)N=C(OC)[C@@H](C(C)C)N=C2OC | > 100 | > 100 | > 100 | > 100 | 87.9 µM | > 100 | > 100 µM | > 100 | > 100 | > 100 | > 100 µM | > 100
O=C(NC1=NCC(CN2CCN(c3ccccc3)CC2)O1)Nc1ccccc1 (stereo not given) | > 100 | > 100 | > 100 | > 100 | > 100 µM | > 100 | > 100 µM | – | > 100 | > 100 | > 100 µM | > 100
